“Also recorded” adds a separate entry of the source. Like-named read-outs stand apart in the source and are kept apart here.
Assays:
[1] = test system: DNA (G4C2)4 (SEQ ID NO: 5) G4; assay: 1D 1H-NMR titration of DNA (G4C2)4 G4; format: binding; conditions: for binding affinity order according to NMR titration: DNA (G4C2)4 G-quadruplex and hnRNP H, FIGS. 3C-3E; for binding to DNA (G4C2)4 G4 by NMR titration: G4:compound ratio 1:1 to 1:10
Experimental: Single […] were purchased from Integrated DNA Technologies (IDT) and Takara. Single-strand DNA/RNA sample at 100 μM was then annealed by heating up to 95° C. for 15 mins, and slowly cooled to room temperature in the annealing buffer (70 mM KCl, 20 mM potassium phosphate (pH 7.0)) for overnight. The final NMR samples contained 0.1 mM DNA or RNA in 70 mM KCl and 20 mM potassium phosphate buffer (pH 7.0).
The 1D ^1H-NMR spectra were performed at 25° C. All compounds were dissolved in isotope-labeled d6-DMSO (Sigma-Aldrich) at about 50 mM concentration, working as stock solutions. To avoid chemical shift changes of DNA/RNA G4 resulted from d6-DMSO addition, […] d6-DMSO was added into 500 μL of 0.1 mM DNA/RNA G4 solution in the NMR buffer (20 mM potassium phosphate buffer and 70 mM KCl, pH 7.0, 10% D2O) and then 1D ^1H-NMR spectrum was recorded as a reference. During NMR titration experiments of adding each compound into the DNA/RNA G4 solution, the maximal volume of 10 μL of each compound in d6-DMSO solution was regarded as a final data point.
We next confirmed the binding of cA and DNA (G4C2)4 (SEQ ID NO: 5) G4 by NMR titration experiments.

[2] = test system: Neuro2a cells transfected with DNA (G4C2)29; assay: Cell viability of Neuro2a cells transfected with DNA (G4C2)29 (C9orf72 ALS/FTD cell model); format: cell-based; conditions: for effect on cell viability of (G4C2)29-transfected Neuro2a cells: 1 μg/ml; for viability at 1 µg/mL: Mus musculus, N2a, read-out: cell viability in (G4C2)29-cells
Experimental: (§1) Cytotoxicity of compounds was tested by MTT assay. Cells were grown in DMEM (Gibco) with 10% FBS and 1% penicillin-streptomycin at 37° C. with 5% CO2. In total, 5×10^3 cells were seeded in each well of 96-well plates and cultured for 24 hours. Then cells were treated with different concentrations of compounds dissolved in DMSO for another 24 hours. After incubating with 20 μl of MTT (5 mg/mL) for each well at 37° C. for another four hours, 100 μl of DMSO was added to dissolve formazan. Absorbance was measured using a Multiskan™ FC microplate photometer at 570 nm. IC50 data were analyzed with GraphPad Prism software.
DNA constructs were transfected to neuronal Neuro2a cell lines using Lipofectamine 2000 (Thermo Fisher Scientific, 11668019). 4 to 6 hours after transfection, fresh culture medium was used to replace the transfection medium, and cells were incubated for another 48 hours to allow recovery and construct expression.

red blood cells = assay: Hemolysis assay; format: cell-based; conditions: 250, 500, 1000 μg/mL; 2% rabbit red blood cells; 37° C., 1 hour
Experimental: Hemolytic activity was determined with 2% fresh red blood cells from a healthy rabbit. Blood cells were obtained and washed with PBS buffer four to five times and centrifuged at 1500 rpm for 10 mins until the upper phase became clear. Compounds were diluted with PBS to final concentrations of 1000, 500, 250 μg/mL, added to the same volume of 2% red blood cells and incubated at 37° C. for 1 hour. Samples were centrifuged at 10,000 rpm for 5 mins, and supernatants were added into 96-well plates and measured at 570 nm with a Thermo Scientific Multiskan FC multiplate photometer (Thermo Scientific™, USA). An aliquot of 10% Triton X-100 was used as the positive control, and 1% DMSO dissolved in PBS was used as the negative control.

[3] = test system: differentiated HT22 cells; assay: cells; format: cell-based; conditions: for EC50: Mus musculus, HT-22, differentiated HT22 cells pre-treated with 5 mM L-glutamate, cell viability; for neuroprotective activity compared with cA: comparison of analogs
Experimental: as §1
Cultured HT22 cells were differentiated by applying 10 μM retinoic acid (Sigma-Aldrich, R2625-50MG) and 500 μM cAMP (Sigma-Aldrich, A6885) in DEME medium supplied with 0.5% FBS (differentiation medium) and incubated 48 hours before adding other treatments. 5 mM L-glutamate acid was applied to the original differentiation medium for further 24-hours incubation. Cell viability was measured by MTT assay described above.
In the C9orf72 associated ALS/FTD, the G4C2 HRE make motor neurons more vulnerable to aberrant neuron excitation^43. Meanwhile, the hyperactivation of glutamate receptors drives a toxic level of neuronal activity, promoting the non-ATG (RAN) translation of G4C2 repeat-associated DPR proteins^44, leading to further toxicity of motor neurons. Thus, we would like to test our compounds in a glutamate (E)-induced excitotoxicity cell model.

Tau-R3 fibrils = target: T1, Tau-R3 fibrils (Homo sapiens, UniProt P10636); assay: TEM imaging of Tau-R3 fibrils; format: biochemical; conditions: cA 10 μg/ml, cB 5 μg/ml, cC 10 μg/ml
T1 construct: Tau-R3 protein was synthesized and purchased from ChinaPeptides Co., Ltd; purchased ChinaPeptides Co., Ltd; host or cells: chemical synthesis
T1 sequence (P10636 623-653 limits assumed): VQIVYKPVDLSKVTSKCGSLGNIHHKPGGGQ
Experimental: Samples from ThT fluorescence experiments were directly applied to a 300-mesh carbon coating copper grid. 20 μL of aggregate samples were dispensed onto a sheet of parafilm, and a copper grid was placed onto the sample drop for 5 mins. The copper grid with samples was moved to water drop for 5 mins-washing, and then stained with 2% uranyl acetate for 5 mins. Images were captured using a transmission electron microscope (Thermo Scientific Talos L120C) at a magnification of 13500× and an acceleration voltage of 120 kV.
In the C9orf72 ALS/FTD, there is a strong genetic association between the microtubule-binding protein, tau and the G4C2 HRE. […] The co-expression of Tau and G4C2 repeats produces a synergistic deterioration of the neurodegeneration phenotype of ALS/FTD^46. Considering the tight correlation of Tau aggregation with the ALS/FTD pathogenesis, we tested our compounds in a non-cell-based Tau-R3 aggregation inhibition assay. […] Moreover, we conducted high magnification TEM imaging to characterize the morphological changes of Tau-R3 fibrils with cA, cB and cC treatments. […] Furthermore, the misfolding of tau protein into filaments in neurons of the central nervous system can be found in various neurodegenerative diseases, such as Alzheimer's disease et al. Therefore, the inhibition on tau aggregation represented a potential of cA and its derivatives in targeting multiple other neurodegenerative diseases more than ALS.

| Compound | binding affinity order according to NMR titration [1] | binding to DNA (G4C2)4 G4 by NMR titration [1] | effect on cell viability of (G4C2)29-transfected Neuro2a cells [2] | viability at 1 µg/mL ([2]; 1 μg/mL, model group 20%) [%] | hemolytic activity (red blood cells) | EC50 [3] [µM] | morphological change of Tau-R3 fibrils (TEM) (Tau-R3 fibrils) | viability at 1 µg/mL [2] [%] | neuroprotective activity compared with cA [3] | cytotoxicity (structure-activity summary) [3] |
| --- | --- | --- | --- | --- | --- | --- | --- | --- | --- | --- |
| CC(=O)Cc1cc2c(c(O)c1C(=O)O)-c1c(c(O)c3oc4c(O[C@@H]5OC(C(=O)O)=C[C@H](O)[C@H]5O)cccc4c(=O)c3c1O)CC2 [cA, chrexanthomycin A] | cC>cA>cB>cF | apparent chemical shift changes | partially increased the cell viability | 30 | no hemolytic activity even at the concentration of 1000 μg/ml; also recorded: no hemolytic activity with a pretty high concentration of 1 mg/ml | 0.31 | broken into shorter and thinner fragments |  |  |  |
| CC(=O)Cc1cc2c(c(O)c1C(=O)O)-c1c(c(O)c3oc4c(O[C@@H]5O[C@H](C(=O)O)[C@@H](O)[C@H](O)[C@H]5O)cccc4c(=O)c3c1O)CC2 [cC, chrexanthomycin C] | cC>cA>cB>cF | proved to bind | partially increased the cell viability |  | no hemolytic activity even at the concentration of 1000 μg/ml; also recorded: no hemolytic activity with a pretty high concentration of 1 mg/ml |  | broken into shorter and thinner fragments | 40 | better neuroprotective activity than cA |  |
| COc1c2c(c(O)c3c(=O)c4cccc(O[C@@H]5OC(C(=O)O)=C[C@H](O)[C@H]5O)c4oc13)-c1c(cc(CC(C)=O)c(C(=O)O)c1O)CC2 [cB, chrexanthomycin B] | cC>cA>cB>cF | proved to bind | made it worse; also recorded: even worse than the model group |  | significant hemolytic activity starting at 500 μg/ml; also recorded: significant hemolytic activity starting at 0.5 mg/ml | 11.1 | broken into shorter and thinner fragments |  | worse than cA | potent cytotoxicity |
